Results reported in patent US20250129430A1, “HIGH ATP-AFFINITY PROTEIN AS THERAPEUTIC TARGET FOR INTRACTABLE CANCER MOLECULAR SUBTYPES AND INHIBITOR THEREOF” (VeraVerse Co., Ltd., priority 2021, published 2025).

Legend:
Test in all cases: Cell viability drug screen, 12-point dose-response AUC
Format in all cases: cell-based, human
AGS = AGS cells (non-SEM subtype); 72 hours
Outline: (§1)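 Dose-response AUC reflects 72 h drug exposure of gastric cancer cells in a 12-point, half-log format, with viability read by luminescence and normalized to DMSO (0.5%).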

Hs746T = Hs746T cells (SEM subtype); 72 hours
Outline: as §1

KATO3 = KATO3 cells; 72 hours
Outline: as §1

MKN1 = MKN1 cells; 72 hours
Outline: as §1

MKN28 = MKN28 cells; 72 hours
Outline: as §1

MKN45 = MKN45 cells (non-SEM subtype); 72 hours
Outline: as §1

MKN74 = MKN74 cells; 72 hours
Outline: as §1

NCC19 = NCC19 cells; 72 hours
Outline: as §1

NCC20 = NCC20 cells; 72 hours
Outline: as §1

NCC24 = NCC24 cells; 72 hours
Outline: as §1

NCC59 = NCC59 cells; 72 hours
Outline: as §1

NCI_N87 = NCI_N87 cells; 72 hours
Outline: as §1

OCUM1 = OCUM1 cells; 72 hours
Outline: as §1

SK4 = SK4 cells (SEM subtype); 72 hours
Outline: as §1

SNU16 = SNU16 cells; 72 hours
Outline: as §1

SNU1750 = SNU1750 cells (SEM subtype); 72 hours
Outline: as §1

SNU1967 = SNU1967 cells; 72 hours
Outline: as §1

SNU1 = SNU1 cells; 72 hours
Outline: as §1

SNU216 = SNU216 cells (non-SEM subtype); 72 hours
Outline: as §1

SNU484 = SNU484 cells (SEM subtype); 72 hours
Outline: as §1

SNU601 = SNU601 cells; 72 hours
Outline: as §1

SNU620 = SNU620 cells; 72 hours
Outline: as §1

SNU638 = SNU638 cells; 72 hours
Outline: as §1

SNU668 = SNU668 cells (SEM subtype); 72 hours
Outline: as §1

SNU719 = SNU719 cells; 72 hours
Outline: as §1

YCC11 = YCC11 cells (SEM subtype); 72 hours
Outline: as §1

YCC2 = YCC2 cells; 72 hours
Outline: as §1

YCC3 = YCC3 cells; 72 hours
Outline: as §1

FU97 = system: FU97; set-up: Average Area Under the Viability Curve (AUC), AUC norm value: scale not given here; settings: FU97 cells; 72 hours
Outline: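 Trapezoidal AUC of a 12-point, DMSO-normalized dose-response curve. Luminescent viability was measured after 72 h of exposure at 37° C to half-log serial dilutions (0.5% DMSO control), dosed 24 h after plating FU97 cells at 5×10^3 per well.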

## O=C(Nc1ccc([N+](=O)[O-])cc1Cl)c1cc(Cl)ccc1O [Niclosamide (Niclocide), Niclosamide]
AGS
  Average Area Under the Viability Curve (AUC), AUC norm value: −1.094
Hs746T
  Average Area Under the Viability Curve (AUC), AUC norm value: −0.6858
KATO3
  Average Area Under the Viability Curve (AUC), AUC norm value: 1.591
MKN1
  Average Area Under the Viability Curve (AUC), AUC norm value: 0.3991
MKN28
  Average Area Under the Viability Curve (AUC), AUC norm value: −0.3809
MKN45
  Average Area Under the Viability Curve (AUC), AUC norm value: 1.159
MKN74
  Average Area Under the Viability Curve (AUC), AUC norm value: −1.62
NCC19
  Average Area Under the Viability Curve (AUC), AUC norm value: 2.917
NCC20
  Average Area Under the Viability Curve (AUC), AUC norm value: 0.2177
NCC24
  Average Area Under the Viability Curve (AUC), AUC norm value: 0.68
NCC59
  Average Area Under the Viability Curve (AUC), AUC norm value: 1.141
NCI_N87
  Average Area Under the Viability Curve (AUC), AUC norm value: 2.802
OCUM1
  Average Area Under the Viability Curve (AUC), AUC norm value: 0
SK4
  Average Area Under the Viability Curve (AUC), AUC norm value: −1.038
SNU16
  Average Area Under the Viability Curve (AUC), AUC norm value: −3.062
SNU1750
  Average Area Under the Viability Curve (AUC), AUC norm value: −0.8987
SNU1967
  Average Area Under the Viability Curve (AUC), AUC norm value: 0.1419
SNU1
  Average Area Under the Viability Curve (AUC), AUC norm value: −1.673
SNU216
  Average Area Under the Viability Curve (AUC), AUC norm value: −0.5185
SNU484
  Average Area Under the Viability Curve (AUC), AUC norm value: −1.164
SNU601
  Average Area Under the Viability Curve (AUC), AUC norm value: 4.911
SNU620
  Average Area Under the Viability Curve (AUC), AUC norm value: 0.8518
SNU638
  Average Area Under the Viability Curve (AUC), AUC norm value: −1.105
SNU668
  Average Area Under the Viability Curve (AUC), AUC norm value: −0.9084
SNU719
  Average Area Under the Viability Curve (AUC), AUC norm value: 2.503
YCC11
  Average Area Under the Viability Curve (AUC), AUC norm value: −0.8753
YCC2
  Average Area Under the Viability Curve (AUC), AUC norm value: 0.6628
YCC3
  Average Area Under the Viability Curve (AUC), AUC norm value: 1.8253
FU97
  Average Area Under the Viability Curve (AUC), AUC norm value: −1.793

## COC(=O)Nc1nc2ccc(C(=O)c3cccs3)cc2[nH]1 [Nocodazole]
AGS
  Average Area Under the Viability Curve (AUC), AUC norm value: −1.573
Hs746T
  Average Area Under the Viability Curve (AUC), AUC norm value: 1.28
KATO3
  Average Area Under the Viability Curve (AUC), AUC norm value: 3.188
MKN1
  Average Area Under the Viability Curve (AUC), AUC norm value: −0.6519
MKN28
  Average Area Under the Viability Curve (AUC), AUC norm value: −0.1478
MKN45
  Average Area Under the Viability Curve (AUC), AUC norm value: 2.005
MKN74
  Average Area Under the Viability Curve (AUC), AUC norm value: 0.7081
NCC19
  Average Area Under the Viability Curve (AUC), AUC norm value: 0.8717
NCC20
  Average Area Under the Viability Curve (AUC), AUC norm value: −1.695
NCC24
  Average Area Under the Viability Curve (AUC), AUC norm value: 0
NCC59
  Average Area Under the Viability Curve (AUC), AUC norm value: 3.0345
NCI_N87
  Average Area Under the Viability Curve (AUC), AUC norm value: −0.7843
OCUM1
  Average Area Under the Viability Curve (AUC), AUC norm value: 0.7248
SK4
  Average Area Under the Viability Curve (AUC), AUC norm value: −0.374
SNU16
  Average Area Under the Viability Curve (AUC), AUC norm value: −1.507
SNU1750
  Average Area Under the Viability Curve (AUC), AUC norm value: 0.7502
SNU1967
  Average Area Under the Viability Curve (AUC), AUC norm value: −0.07292
SNU1
  Average Area Under the Viability Curve (AUC), AUC norm value: −0.7242
SNU216
  Average Area Under the Viability Curve (AUC), AUC norm value: 2.032
SNU484
  Average Area Under the Viability Curve (AUC), AUC norm value: −0.8136
SNU601
  Average Area Under the Viability Curve (AUC), AUC norm value: 1.743
SNU620
  Average Area Under the Viability Curve (AUC), AUC norm value: −0.735
SNU638
  Average Area Under the Viability Curve (AUC), AUC norm value: −0.1875
SNU668
  Average Area Under the Viability Curve (AUC), AUC norm value: −0.1188
SNU719
  Average Area Under the Viability Curve (AUC), AUC norm value: 4.976
YCC11
  Average Area Under the Viability Curve (AUC), AUC norm value: −0.8279
YCC2
  Average Area Under the Viability Curve (AUC), AUC norm value: 1.3363
YCC3
  Average Area Under the Viability Curve (AUC), AUC norm value: 3.066
FU97
  Average Area Under the Viability Curve (AUC), AUC norm value: 0.3797
